Test results taken from US8609659B2, “Substituted 3,8-diazabicyclo[3.2.1]octane compounds” (Neuroscienze Pharmaness S.C.A.R.L., priority 2009, dated 2013).
Read-outs that look alike come from different tables or passages of the source.

Legend:
mouse = type: in vivo; settings: 5 mg/Kg i.p., average ± SEM of 6 animals
Procedure: In the Tail Flick test it is determined the time elapsed between the exposure of one part of the mouse tail (2 cm measured from the tail tip) to a small heat source and the time when the animal moves away the tail (Ruiu) S. et al. in J. Pharmacol. Exp. Ther.; 306 (1) (2003) 363-370). This time interval is automatically calculated by a specific equipment for the Tail-Flick test (Apparatus for the Tail Flick, Ugo Basile, Italy). The equipment is provided with an infrared lamp that is the heat regulatable source. For avoiding lesions to the tail tissues a maximum latency time has been fixed (cut-off=12 sec), after which the tail is moved away from the heat source.
The values of the latency time obtained in the experimentation were expressed in MPE % (maximum possible effect %), according to the formula:
[formula] wherein: Test Latency is the time in seconds elapsed before the animal moves away the tail from the heat source, Base Latency is the time in seconds elapsed before the same, untreated animal moves away the tail from the heat source.
The analgesic potency of the compound obtained in Example 6.1 was evaluated. The compound was solubilized in an aqueous solution (carrier), formed of a mixture of a physiological solution, ethanol and Cremophor® EL in the ratios by volume: 18.5:1.0:0.5. The blank or control was the carrier. The test compound was administered by intraperitoneal (i.p.) route, by using a solution volume to obtain a dose of 5 mg/kg.
The duration of the analgesic effect was evaluated by determining the MPE % values obtained at different times (20, 40, 60, 120 minutes) from administration of the compound and of the corresponding control (carrier).
Example 13 was repeated but using the compound synthesized in Ex. 6.9. The analgesic activity was evaluated at 30, 60, 120 and 240 minutes from the administration of the compound. The compound was administered at the dose of 5 mg/Kg after solubilization in an aqueous solution (carrier) formed of physiological solution, ethanol and Cremophor® EL in the same ratios as indicated in Example 13.
In order to evaluate the property of the compounds of formula (I) in the modulation of the analgesic effect of morphine, the Tail Flick test was carried out by using either only morphine or morphine in association with the compound of Ex. 6.9. The procedure described in Ex. 13 was repeated by recording the MPE % values at different times from the administration of the tested compounds: 30, 60, 120 and 240 minutes.

μ opioidergic receptors = target: T1, μ opioidergic receptors (Mus musculus, UniProt P42866); experiment: Radioreceptorial binding, μ opioidergic receptors ([3H]-DAMGO, mouse brain membranes); settings: 1 nM [3H]-DAMGO, CD1 mouse brain membranes, 25° C., 60 minutes
T1 construct: from tissue; host or cells: CD1 mouse brain (excluding cerebellum) membranes

δ opioidergic receptors = target: T2, δ opioidergic receptors (Mus musculus, UniProt P32300); experiment: Ex-vivo model, isolated organ: electrically induced contractions of mouse vas deferens; settings: for % contraction inhibition: no antagonist, average of 7 experiments; for activity towards the delta opioid receptors: inhibition of contractions antagonized by ICI 17.4864 or Naltrindol; for inhibition: read-out: % contraction inhibition after addition of ICI 17.4864
T2 construct: from tissue; host or cells: CD1 mouse vas deferens segments (isolated organ)
Procedure: Said effect is antagonized by selective antagonists of the delta opioid receptors, for example the compounds ICI 17.4864 and Naltrindol.
For evaluating the activity of the compounds of the invention on the delta opioid receptors, the compounds respectively obtained in Examples 6.1 and 6.9 were subjected to tests carried out on the basis of the method described by E. J. Bilsky et al. (J.P.E.T., 1995 April; 273 (1):359-366). The experiments were carried out on samples of vas deferent segments taken from CD1 mice (25-30 grams) immediately after sacrifice. After the explant, the vas deferent segments were transferred in a Petri dish containing a Krebs oxygenated solution (118.2 mM NaCl, 4.75 mM KCl, 1.19 mM KH2PO4, 25.0 mM NaHCO3, 11.0 mM glucose, and 2.54 mM CaCl2) in order to proceed to the cleaning of the samples and their subsequent dissection in segments. Segments of vas deferens were so obtained having a length of 1.0-1.2 cm. They were thus immersed in tubs containing 10 ml of an oxygenated Krebs solution (95% O2 and 5% CO2) and kept at a temperature of 37° C. One end of the vas deferens segment was attached to a fixed support, at the tub bottom, while the other end was connected to an isometric force transducer (WPI Fort10, Biological Instruments, Besozzo, Italy) for the registration of the contractions induced by electric stimuli. The samples were then allowed to equilibrate for 60 minutes, changing the Krebs solution every 15 minutes. The samples were then subjected to treatment cycles wherein the electrical stimulation lasted 3 minutes, with an interval of 15 minutes before the following stimulation. The isometric contractions were evoked with sequences of 3 pulses (sequence frequency 0.1 Hz; pulse duration 2 ms) by means of platinum electrodes placed at the sides of the samples. The electrical stimuli were generated by a Grass S88K stimulator and amplified (multiplexing pulse booster 316S; Ugo Basile, Comerio, Italy). The musculature contractions of the vas deferens were monitored by a computer, recorded and analyzed by an analysis system (PowerLab 400). The compounds of the invention were added to the vas deferens in cumulative doses, in the absence or in the presence of one of the following antagonists of the delta opioid receptors: ICI 17.4864 and Naltrindol.
The effect of the tested compounds on the contractions of vas deferens musculature was expressed in percent, calculated by referring the amplitude of the contractions induced by the electrical stimulations after each addition of the test compound to the amplitude of the contractions obtained in the absence of the same compound (100%).
The results obtained with the compounds of Examples 6.1 and 6.9 are reported, respectively, in Table 2 and in Table 3. The results are an average of the data obtained in seven different experiments.

[1] = compound 10^−6 moles/litre + NTI 5 × 10^−8 M
[2] = compound 10^−7 moles/litre + NTI 5 × 10^−8 M
[3] = compound 10^−8 moles/litre + NTI 5 × 10^−8 M
[4] = compound 10^−9 moles/litre + NTI 5 × 10^−8 M
[5] = compound 10^−10 moles/litre + NTI 5 × 10^−8 M
[6] = compound 10^−11 moles/litre + NTI 5 × 10^−8 M

T2 sequence (P32300 whole entry): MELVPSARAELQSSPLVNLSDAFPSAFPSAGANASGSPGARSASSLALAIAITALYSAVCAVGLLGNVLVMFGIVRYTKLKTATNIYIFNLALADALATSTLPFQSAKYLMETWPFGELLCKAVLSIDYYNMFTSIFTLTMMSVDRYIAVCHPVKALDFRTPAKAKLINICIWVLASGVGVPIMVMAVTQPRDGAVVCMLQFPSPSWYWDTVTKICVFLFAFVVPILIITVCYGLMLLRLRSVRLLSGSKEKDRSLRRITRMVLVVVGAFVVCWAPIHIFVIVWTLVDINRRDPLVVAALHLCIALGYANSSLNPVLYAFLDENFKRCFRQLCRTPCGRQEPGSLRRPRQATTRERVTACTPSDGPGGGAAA
T1 sequence (P42866 whole entry): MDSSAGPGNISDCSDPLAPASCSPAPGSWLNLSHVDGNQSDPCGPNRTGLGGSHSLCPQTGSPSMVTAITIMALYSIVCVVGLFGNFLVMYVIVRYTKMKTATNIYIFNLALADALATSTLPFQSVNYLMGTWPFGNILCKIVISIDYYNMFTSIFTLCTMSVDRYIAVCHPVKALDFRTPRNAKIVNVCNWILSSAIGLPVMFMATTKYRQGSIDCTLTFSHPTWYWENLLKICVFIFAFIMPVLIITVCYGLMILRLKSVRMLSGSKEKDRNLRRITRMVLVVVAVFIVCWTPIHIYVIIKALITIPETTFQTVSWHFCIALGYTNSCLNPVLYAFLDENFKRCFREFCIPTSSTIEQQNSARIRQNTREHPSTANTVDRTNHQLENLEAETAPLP

| SMILES | MPE % (mouse; 60 min) [%] | MPE % (mouse; 120 min) [%] | Ki (μ opioidergic receptors) [nM] | % contraction inhibition after addition of Naltrindol NTI (δ opioidergic receptors; [1]) [%] | % contraction inhibition (δ opioidergic receptors; compound 10^−6 moles/litre) [%] | % contraction inhibition after addition of Naltrindol NTI (δ opioidergic receptors; [2]) [%] | % contraction inhibition (δ opioidergic receptors; compound 10^−7 moles/litre) [%] | % contraction inhibition after addition of Naltrindol NTI (δ opioidergic receptors; [3]) [%] | % contraction inhibition (δ opioidergic receptors; compound 10^−8 moles/litre) [%] | % contraction inhibition after addition of Naltrindol NTI (δ opioidergic receptors; [4]) [%] | % contraction inhibition (δ opioidergic receptors; compound 10^−9 moles/litre) [%] | % contraction inhibition after addition of Naltrindol NTI (δ opioidergic receptors; [5]) [%] | % contraction inhibition (δ opioidergic receptors; compound 10^−10 moles/litre) [%] | % contraction inhibition after addition of Naltrindol NTI (δ opioidergic receptors; [6]) [%] | % contraction inhibition (δ opioidergic receptors; compound 10^−11 moles/litre) [%] | activity towards the delta opioid receptors (δ opioidergic receptors) | also measured |
| --- | --- | --- | --- | --- | --- | --- | --- | --- | --- | --- | --- | --- | --- | --- | --- | --- | --- |
| C=CCN1C2CCC1C1CCC2N1C(c1ccc(C(=O)N(CC)CC)cc1)c1cccc(OC)c1 (stereo not drawn) [Example 6.1, 4-[(10-allyl-9,10-diazatricyclo[4.2.1.1^2,5]dec-9-yl)-(3-methoxyphenyl)methyl]-N,N-diethylbenzamide] | 20.0 ± 3.0 | 13.2 ± 2.8 | 1630 ± 186 | 41.0 | 86.0 | 24.9 | 71.5 | 19.0 | 51.0 | 11.5 | 32.0 | 5.0 | 16.0 | 4.0 | 5.5 | agonist activity | MPE % (mouse; 20 min): 15.1 ± 3.5%; MPE % (mouse; 40 min): 50.1 ± 12.0% |
| C=CCN1C2CCC1C1CCC2N1C(c1ccc(C(=O)N(CC)CC)cc1)c1cccc(O)c1 (stereo not drawn) [Example 6.9, 4-[(10-allyl-9,10-diazatricyclo[4.2.1.1^2,5]dec-9-yl)-(3-hydroxyphenyl)methyl]-N,N-diethylbenzamide] | 32.8 ± 10.0 | 18.5 ± 2.0 | 20 ± 0.5 | 67.5 | 85.0 | 29.0 | 83.0 | 8.9 | 70.0 | 5.2 | 40.0 | 4.5 | 17.0 | 3.0 | 7.5 | agonist activity | MPE % (mouse; 30 min): 30.1 ± 2.7%; MPE % (mouse; 240 min): 1.2 ± 0.6%; inhibition (δ opioidergic receptors; compound 10^−6 moles/litre + ICI 17.4864 2 × 10^−6 M): 52.2%; inhibition (δ opioidergic receptors; compound 10^−7 moles/litre + ICI 17.4864 2 × 10^−6 M): 28.2%; inhibition (δ opioidergic receptors; compound 10^−8 moles/litre + ICI 17.4864 2 × 10^−6 M): 9.5%; inhibition (δ opioidergic receptors; compound 10^−9 moles/litre + ICI 17.4864 2 × 10^−6 M): 4%; inhibition (δ opioidergic receptors; compound 10^−10 moles/litre + ICI 17.4864 2 × 10^−6 M): 2.5%; inhibition (δ opioidergic receptors; compound 10^−11 moles/litre + ICI 17.4864 2 × 10^−6 M): 1.8% |
